Columns and labels:
[1] = system: JAWSII cells; experiment: RT-qPCR of transcription factor mRNA after DP7, with or without chemical inhibitors; type: cell-based, mouse; settings: for effect of inhibitor on DP7-induced mRNA expression of transcription factors: pretreatment 1 h at 10 μM (BIBR796 5 μM) or PTX 200 ng/ml 3 h, then DP7 30 min, compared to DP7 alone
Procedure: [The procedure below names another cell line; the source lists this cell line under the same test.] Small molecule inhibitors were employed to elucidate the upstream signaling pathways involved in the expression of 6 transcription factors: selumetinib (MEK1/2 inhibitor), BIBR796 (p38α inhibitor), sp600125 (pan JNK inhibitor), XMD8-92 (Erk5 inhibitor), sotrastaurin (PKCθ inhibitor), AS-605240 (PI3Kγ inhibitor), LY294002 (PI3Kα/β/γ inhibitor) and pertussis toxin (PTX, Gi protein inhibitor). BMDCs were pretreated with 10 μM selumetinib, 5 μM BIBR796, 10 μM sp600125, 10 μM XMD8-92, 10 μM sotrastaurin, 10 μM AS-605240, and 10 μM LY294002 at 37 °C for 1 h and with 200 ng/ml PTX at 37 °C for 3 h. BMDCs were exposed to DP7 at 37 °C for 30 min, and then the mRNA expression of the transcription factors was examined by RT-qPCR.
Total RNA was isolated using TRIzol reagent (Takara, Otsu, Japan), further purified by isopropanol/ethanol precipitation and finally dissolved in RNase-Free H2O. cDNA was prepared with 5× All-In-One MasterMix with the AccuRT Genomic DNA Removal Kit (Abm Canada Inc., Milton, ON, Canada) and employed as a template to assess the expression of various genes with EvaGreen 2× qPCR MasterMix (Abm Canada Inc., Milton, ON, Canada). The results were analyzed according to the relative expression normalized against β-actin.

[2] = system: BMDCs; experiment: BMDC maturation surface markers (flow cytometry); type: cell-based, mouse; settings: CD11c+ BMDCs, 16 h, DP7 40 µg/ml, CpG 20 µg/ml
Procedure: To study the effect of the CpG/DP7 complex on BMDCs, BMDCs were incubated with DP7 (40 µg/ml), CpG (20 µg/ml) or the CpG/DP7 combination for 16 h, stained with APC-anti-Mouse CD11c (Clone HL3; BD Biosciences Cat# 550261), FITC-anti-mouse-CD40 (Clone 3/23; BD Biosciences Cat# 561845), PerCP-Cy5.5-anti-mouse-CD80(clone 16-10A1; BD Biosciences Cat# 560526) or FITC-anti-mouse-CD86 (clone GL1; BD Biosciences Cat# 561962). BMDCs were gated as CD11c^+ and analyzed for CD40, CD80, CD86 expression by NovoExpress software (ACEA Biosciences, Inc.).

[3] = system: C57BL/6 mice; experiment: Leukocyte recruitment to peritoneal lavage; type: in vivo, mouse; settings: C57BL/6, 200 μg i.p., 24 h post-injection, N = 5, vs saline
Procedure: C57BL/6 mice (N = 5) were intraperitoneally injected with 200 μg DP7, DP8, or DP10. An equal volume of sterile saline served as a control. Cells in the peritoneal lavage were collected and counted at 24 h postinjection. To analyze the recruitment of leukocytes, cells were stained with PE-anti-mouse-GR-1(clone RB6-8C5; BD Biosciences Cat# 553128), APC-anti-mouse-F4/80 (clone T45-2342; BD Biosciences Cat# 566787) or PE-anti-CD11b (clone M1/70; BD Biosciences Cat# 557397) at 4 °C for 30 min and then detected using a BD FACSCalibur (BD Biosciences, San Jose, CA). Neutrophils, inflammatory monocytes and macrophages were gated as Gr1^+F4/80^−, F4/80^+Gr1^+, and F4/80^+CD11b^+ cells, respectively.

[4] = system: GPR35; experiment: Receptor internalization assay; type: cell-based, mouse; settings: BMDCs, DP7 40 μg/ml, 30 min, immunofluorescence; similar in JASWII and RAW264.7 cells
Procedure: BMDCs (1 × 10^5) were plated on a microscope cover glass and cultured at 37 °C overnight. The next day, the cells were stimulated with 40 μg/ml DP7 at 37 °C for 30 min and then fixed in 4% paraformaldehyde in PBS at room temperature for 15 min. After washing with PBS 3 times, the BMDCs were blocked and permeabilized in buffer containing 0.1% bovine serum albumin (BSA), 0.5% Triton X-100, and 4% goat serum in PBS for 1 h. Afterward, the BMDCs were incubated with goat anti-GPR35 (clone M-14; Santa Cruz Biotechnology Cat# sc-79507; 1:100) in 3% BSA/PBS buffer at 4 °C for 16 h, followed by staining with the FITC-labeled anti-goat IgG (H + L) secondary antibody (1:100, ZSGB-BIO, Beijing, China) in 3% BSA/PBS buffer at 37 °C for 1 h. BMDCs were finally stained with DAPI and stored at 4 °C until imaging. Confocal imaging was performed with an LSM 800 Zeiss confocal microscope.

[5] = system: JAWSII cells; experiment: Intracellular calcium measurement (Fluo 3-AM); type: cell-based, mouse; settings: DP7 40 µg/ml, 15 and 30 min
Procedure: JAWSII cells (1 × 10^5) were seeded into 96-well clear–bottom black plates (Corning, New York, USA.) with six replicate wells per condition and cultured at 37 °C overnight. The cells were washed once with Hank’s buffer followed by incubation with the calcium fluorescence probe Fluo 3-AM (5 μM; excitation at 506 nm and emission at 526 nm) (Beyotime, Hangzhou, China) in Hank’s buffer at 37 °C for 30 min. After treatment, the cells were washed once with Hank’s buffer and subsequently stimulated with DP7 (40 µg/ml) for 15 min or 30 min. Fluorescence was measured by a Celligo® imaging cytometer. The Ca^2+ levels are represented by the mean fluorescence intensity of individual cells.

[6] = system: BMDCs; experiment: RNA-Seq analysis of BMDCs challenged with DP7; type: cell-based, mouse; settings: DP7 30 min vs control
[7] = system: JAWSII cells; experiment: Western blotting of Erk1/2 phosphorylation in JAWSII cells; type: cell-based, mouse
Text: Protein extracts from each sample were separated by 12% SDS-PAGE and transferred onto polyvinylidene fluoride membranes (Millipore, Billerica, MA). The membranes were blocked with 5% non-fat milk. Then, the protein bands were probed with primary antibodies against NF-κB p65 XP® Rabbit mAb (clone D14E12; Cell Signaling Technology Cat#8242), Phospho-NF-κB p65 (Ser536) Rabbit mAb (clone 93H1; Cell Signaling Technology Cat#3033), Erk1/2 Rabbit mAb (clone 137F5; Cell Signaling Technology Cat#4695) and Phospho- Erk1/2 (Thr202/Tyr204) XP® Rabbit mAb (clone D13.14.4E; Cell Signaling Technology Cat#4370) overnight at 4 °C. Then the membranes were incubated with horseradish peroxidase-conjugated goat anti-rabbit IgG (1:3000; Cell Signaling Technology Cat#7074). The blots derive from the same experiment were processed in parallel. The full, uncropped blot with molecular weight marker are shown in Supplementary Fig. 9.

## O=C1NC(=O)/C(=C\c2ccc3nccnc3c2)S1 [AS-605240]
[1]
  effect of inhibitor on DP7-induced mRNA expression of transcription factors: significantly suppressed

## Cc1ccc(-n2nc(C(C)(C)C)cc2NC(=O)Nc2ccc(OCCN3CCOCC3)c3ccccc23)cc1 [BIBR796]
[1]
  effect of inhibitor on DP7-induced mRNA expression of transcription factors: little or no inhibitory effect

## O=c1cc(N2CCOCC2)oc2c(-c3ccccc3)cccc12 [LY294002]
[1]
  effect of inhibitor on DP7-induced mRNA expression of transcription factors: little or no inhibitory effect

## CCOc1cc(N2CCC(O)CC2)ccc1Nc1ncc2c(n1)N(C)c1ccccc1C(=O)N2C [XMD8-92]
[1]
  effect of inhibitor on DP7-induced mRNA expression of transcription factors: little or no inhibitory effect

## Cn1cnc2c(F)c(Nc3ccc(Br)cc3Cl)c(C(=O)NOCCO)cc21 [selumetinib]
[1]
  effect of inhibitor on DP7-induced mRNA expression of transcription factors: significantly suppressed

## CN1CCN(c2nc(C3=C(c4c[nH]c5ccccc45)C(=O)NC3=O)c3ccccc3n2)CC1 [sotrastaurin]
[1]
  effect of inhibitor on DP7-induced mRNA expression of transcription factors: significantly suppressed

## Oc1c2ccccc2c2c3c(cccc13)N=N2 [sp600125]
[1]
  effect of inhibitor on DP7-induced mRNA expression of transcription factors: little or no inhibitory effect

## VQWRIRVAVIRK [DP7]
[2]
  CD40-FITC positive BMDCs: 1.1%
  CD80-PerCP-Cy5.5 positive BMDCs: 28.9%
  CD86-FITC positive BMDCs: 36.2%
[3]
  number of macrophages in the peritoneal lavage: modest but nonsignificant increase
  numbers of monocytes and neutrophils in the peritoneal lavage: significant increase
[1]; DP7 40 μg/ml, 30 min, vs nonstimulated
  expression of Egr1, Egr2, Egr3, c-Fos, Fosb and Nr4a1 mRNA: elevated expression
[4]
  GPR35 localisation after stimulation: internalization of GPR35 into the cytoplasm
[5]
  intracellular Ca2+ levels: elevation
[6]
  Fold change, Akap9: 2.08
  Fold change, Arap2: 2.02
  Fold change, Atxn1l: 2.04
  Fold change, Btg2: 2.47
  Fold change, Ccdc77: 2.06
  Fold change, Ccno: 2.1
  Fold change, Clec4b2: 2.82
  Fold change, Depdc5: 2.01
  Fold change, Dgkh: 2.4
  Fold change, Egr1: 16.63
  Fold change, Egr2: 2.4
  Fold change, Egr3: 15.7
  Fold change, Ethe1: 2.89
  Fold change, F3: 2.23
  Fold change, Fbxw7: 2.25
  Fold change, Fos: 6.34
  Fold change, Fosb: 114.79
  Fold change, Gm6377: 2.68
  Fold change, Gm9159: 2.03
  Fold change, Gm12359: 2.13
  Fold change, Gpr35: 2.2
  Fold change, Gpr52: 3.32
  Fold change, Gsta1: 3.08
  Fold change, Ier2: 3.15
  Fold change, Igj: 2.68
  Fold change, Jmjd1c: 2.09
  Fold change, Klhl15: 3.73
  Fold change, Lmo1: 2.81
  Fold change, Lrrc40: 2.19
  Fold change, Nr4a1: 19.81
  Fold change, Nr4a2: 2.02
  Fold change, Osm: 2.42
  Fold change, Parp6: 2.3
  Fold change, Perp: 2.05
  Fold change, Phf8: 2.17
  Fold change, Plk3: 2.75
  Fold change, Prph: 2.22
  Fold change, Prrg4: 2.05
  Fold change, Slc38a9: 2.15
  Fold change, Suco: 2.19
  Fold change, Szt2: 2.01
  Fold change, Tjp1: 3.44
  Fold change, Tmem51: 2.05
  Fold change, Tnfaip6: 2.01
  Fold change, Trib1: 2.69
[7]; JAWSII cells, DP7 30 and 60 min, western blotting
  Erk1/2 phosphorylation: enhancement

## pertussis toxin [PTX, reference compound]
[1]
  effect of inhibitor on DP7-induced mRNA expression of transcription factors: significantly suppressed
[7]; JAWSII cells pretreated with PTX, then DP7 30 and 60 min
  effect on activation of pErk1/2 by DP7: partially abolished

Reference: publication PMC8138013, “Rational design of innate defense regulator peptides as tumor vaccine adjuvants” (NPJ Vaccines, 2021)
